Data published in PubChem BioAssay AID624432 (The Scripps Research Institute Molecular Screening Center, 2012).
Active and inactive are the calls of the source.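 The calls were made as follows: active = compounds whose fitted IC50 is below 25 µM; inactive = the rest.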

Molecular target: Serine/threonine-protein phosphatase 5 (Homo sapiens) (UniProt P53041)
Assay: PP5 inhibitor potency, OMFP cleavage, dose response, biochemical, fluorescence, powder samples, fifth round (AID 624432)
Details: purified PP5c, OMFP dephosphorylation

Sequence of Serine/threonine-protein phosphatase 5 (Homo sapiens) (P53041 whole entry, looked up): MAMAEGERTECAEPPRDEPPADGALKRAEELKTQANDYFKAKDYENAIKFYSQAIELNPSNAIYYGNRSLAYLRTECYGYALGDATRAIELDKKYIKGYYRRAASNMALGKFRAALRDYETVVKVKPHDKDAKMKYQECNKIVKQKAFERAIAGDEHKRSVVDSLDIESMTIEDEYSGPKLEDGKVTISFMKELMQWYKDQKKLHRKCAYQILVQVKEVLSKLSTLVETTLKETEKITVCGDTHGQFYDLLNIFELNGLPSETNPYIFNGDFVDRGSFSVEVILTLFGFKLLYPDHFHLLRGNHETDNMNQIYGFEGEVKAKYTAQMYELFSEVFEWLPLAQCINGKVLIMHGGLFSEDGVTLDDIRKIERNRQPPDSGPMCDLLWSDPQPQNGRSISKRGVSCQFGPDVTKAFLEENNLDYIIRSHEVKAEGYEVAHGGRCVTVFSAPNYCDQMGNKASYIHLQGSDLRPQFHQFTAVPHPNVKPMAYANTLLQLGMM

SMILES	IC50
O=C(O)c1n[nH]nc1-c1ccccc1C(F)(F)F	> 1000 µM (inactive)
Cc1cccc(C)c1-c1n[nH]nc1C(=O)O	inactive
